Experimental data taken from US20020102688A1, “Methods and products for the synthesis of oligosaccharide structures on glycoproteins, glycolipids, or as free molecules, and for the isolation of cloned genetic sequences that determine these structures” (The Regents of the University of Michigan, priority 1990, published 2002).

Key:
[1] = molecular target: T1, agglutinin from Erythrina cristagalli (ECA) (Erythrina crista-galli, UniProt P83410); assay: Hapten inhibition of FITC-ECA binding to L cells (FACS); conditions: FITC-labeled ECA preincubated with hapten
T1 construct: purchased E-Y Labs (San Mateo, Calif.)
T1 sequence (P83410 1-239): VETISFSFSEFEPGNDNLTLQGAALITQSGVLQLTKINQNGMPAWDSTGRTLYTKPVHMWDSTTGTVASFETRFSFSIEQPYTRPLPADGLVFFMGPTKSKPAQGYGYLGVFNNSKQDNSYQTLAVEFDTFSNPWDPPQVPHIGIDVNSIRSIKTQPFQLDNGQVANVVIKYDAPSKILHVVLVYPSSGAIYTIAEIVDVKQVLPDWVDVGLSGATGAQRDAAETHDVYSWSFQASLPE
Method: These would represent potential acceptor molecules for a complementing human (α-1,2)fucosyltransferase activity and would allow the resulting surface-expressed Fucα(1,2)Gal linkages to be detected with anti-H antibody. The agglutinin from Erythrina cristagalli (ECA) was used for this analysis. […] L cells were stained with purified, FITC-labeled ECA, or with FITC-labeled ECA that had been preincubated with the hapten N-acetyllactosamine and were subjected to FACS analysis.

[2] = tested on: monoclonal anti-H antibody; assay: Hapten inhibition of anti-H antibody binding to mH1-12 cells (indirect immunofluorescence); design: species or system mouse; conditions: antibody preincubated with hapten, 20 mM
Method: (§1) Immunofluoroscence was performed on cells plated on 8-well tissue culture chamber slides (Lab-Tek). Cells were plated at a density of 5×10^4/well 24 h prior to analysis. Anti-H and anti-A primary antibodies were diluted in PBS containing bovine serum albumin at 2 mg/ml, to a final concentration of 10 μg/ml. Cell-bound primary antibodies were detected with FITC-conjugated goat anti-mouse IgM, diluted to 40 μg/ml in PBS containing 2 mg/ml bovine serum albumin.
(§2) Hapten Inhibition—Plated cells were washed twice with PBS, and were incubated for 30 min at 4° C. with 100 μl of diluted anti-H antibody, or with 100 μl of diluted antibody containing different oligosaccharide haptens, each at a concentration of 20 mM. The chambers were then washed twice, and 100 μl of FITC-conjugated goat anti-mouse IgM was added. After 30 min at 4° C., the chambers were washed three times with PBS, and the cells were fixed at room temperature for 10 min in 3.7% formaldehyde in PBS. The cells were washed twice with PBS, the chambers were removed, and the slide was mounted in PBS containing 25% glycerol. Cells were examined by fluorescence microscopy using a Zeiss Axiophot photomicroscope equipped with fluorescence epiillumination.

[3] = tested on: monoclonal anti-H antibody (BE2); assay: Hapten inhibition of BE2 anti-H antibody binding to mH1-12 cells; design: species or system mouse; conditions: antibody preincubated with hapten, 20 mM
Method: as §1, §2

Compound	inhibition of ECA binding to L cells by hapten [1]	inhibition of anti-H antibody binding to mH1-12 cells by hapten [2]	inhibition of BE2 anti-H antibody binding to mH1-12 cells by hapten [3]
CC(=O)N[C@H]1C(O)O[C@H](CO)[C@@H](O[C@@H]2O[C@H](CO)[C@H](O)[C@H](O)[C@H]2O)[C@@H]1O (some centres unmarked) [N-acetyllactosamine]	effectively inhibited	does not inhibit	
OC[C@H]1O[C@@H](O[C@H]2[C@H](O)[C@@H](O)C(O)O[C@@H]2CO)[C@H](O)[C@@H](O)[C@H]1O (some centres unmarked) [lactose]		does not inhibit	
Fucα(1,2)Galβ(1,4)Glc [2-fucosyllactose]		blocked	inhibition of binding
